Among the data in a melting point compilation (Tetko et al.; mined from patent text by program, amines drawn as free bases though some values may be those of a salt) are melting point values, retold here.

Bounds are passed on as bounds.

Regarding `O=C(Nc1ccccc1S(=O)(=O)c1ccccc1)N[C@@H](Cc1ccc(NC(=O)c2c(Br)cncc2Br)cc1)C(=O)O`, the melting point (usually the temperature, or range, at which the solid turns liquid) was 231 °C.
To `COc1ccc(S(=O)(=O)N2CCc3cccc(-c4cccc(F)c4)c32)cc1` belongs 180 to 181 °C; to `COc1ccc(CS[C@@H]2C[C@@H](COc3ccccc3)N(S(C)(=O)=O)C2)cc1`, 92 to 94 °C.
To `O=c1[nH]c2c(Cl)ccc(Cl)c2c(=O)n1CCCN1CC=C(c2ccc(Cl)cc2)CC1` belongs 207 to 209 °C.
To `CC(=O)Oc1c(C)ccc2c1NC(O)C1CCCN1C2=O` (configuration not stated) belongs 142 to 145 °C.
Compound `COCc1cnc2c(NC(=O)c3c(Cl)cccc3Cl)ccc(C)c2c1N1CCN(C)C1=O` registered a melting point of 105 to 112 °C.
With `CCC(C)NC1=NS(=O)(=O)c2sc(C)cc2N1` (configuration not stated) the figure was 224 to 225 °C.
With `CC(NC(=O)NC1N=C(c2ccccc2)c2ccccc2N(C)C1=O)c1ccccc1` (configuration not stated) the figure was 146 to 150 °C; with `CC(C)(C)C(=O)OCCc1c(-c2ccccc2)nc(N)n2ncnc12`, 160 °C; with `CCCCN(C)c1nsc(NC(=O)NC)c1C#N`, 109 to 110 °C.
With `Cc1oncc1C(=O)Nc1ccc(NC(=O)CBr)cc1` the figure was 179 °C; with `Clc1ccc(Cn2cnc3c(-c4ccco4)ncnc32)cc1`, 156 to 159 °C; with `CCCN1NCc2c(C3C(=O)Nc4ccc(C(F)(F)F)cc43)ncnc21` (configuration not stated), 293 to 295 °C.
Regarding `Cc1ccc(S(=O)(=O)Oc2ccccc2NC(=O)c2cccc3[nH]ccc23)cc1`, the melting point stood at 135 °C.
To `Cc1c(-c2ccc(O)cc2)n(Cc2ccc(OCCN3CCCC(C)C3)cc2)c2ccc(O)cc12` (configuration not stated) belongs 121 to 123 °C; to `CCOC(=O)COc1cc2ccsc2c(Cl)c1Cl`, 92 to 93 °C; to `O=S(=O)(NCc1ccnc2ccccc12)c1ccc(Cc2ccccc2)cc1`, 106 to 107 °C.
Regarding `COc1ccc(-n2nc(Sc3ccc4ccccc4c3)c(C)c(C#N)c2=O)cc1`, the melting point fell in the range of 169 to 170 °C.
The compound `CC(C)(C)OC(=O)N1CCc2c(oc3cc(S(=O)(=O)c4cccc(F)c4)ccc23)C1(C)C` showed a melting point of 58 to 60 °C.
To `Cc1cc(CCCCCCCOc2ccc(C(=O)N(C)C)cc2)on1` belongs 58 to 59 °C.
Consider `CC(C)(C)OC(=O)N1CCC(O)(CSC2=CC(=O)C(=O)c3ccccc32)CC1`, for which the melting point lay within 156 to 157 °C.
To `CCOC(=O)c1cc(C)n(-c2cccc(I)c2)c1-c1ccccc1` belongs 143 to 144 °C; to `CCOC(=O)NNC(=O)NCCOc1ccccc1`, 170 to 173 °C.
In turn, `c1ccc(-c2noc(-c3cc4c(cn3)[nH]c3ccccc34)n2)cc1` came in with a melting point of 279 to 283 °C.
To `CC(CCl)CCCC(C)C1CC=C2C3=C(CCC21C)C1(C)CCC(O)C(C)(C)C1CC3` (configuration not stated) belongs 145 to 146 °C.
To `Cc1cc(C)c2c(c1)-c1cc(Br)c(C)cc1P(=O)(O)O2` belongs 260 °C; to `CN(C(=O)c1ccc(-n2cc3ccccc3n2)cc1)[C@@H]1CCN(C(=O)OC(C)(C)C)C1`, 133 to 134 °C.
With `Cc1cc2[nH]cc(CSCCN3CC=C(c4ccccc4)CC3)c2cc1C` the figure was 123 to 124 °C; with `O=C(Nc1ccc(-n2nc(C(F)(F)F)cc2C2CC2)nc1)c1c(F)cccc1F`, 157 to 162 °C; with `CCCCCS(=O)(=O)NC(=O)CCc1cc(C2CC2)nn1Cc1ccc(C(F)(F)F)cc1Cl`, 152 to 154 °C.
For `Cc1cccc2c(=O)n3c(nc12)C(=O)c1cc(F)ccc1-3`, the melting point was in the range of 255 to 257 °C.
To `CCOC(=O)CC(=O)C=Cc1ccccc1` belongs 49 °C; to `CC(C)(C)C(NC(=O)c1cccc(Cl)c1)Nc1c(Nc2ccc(C(F)(F)F)nc2)c(=O)c1=O` (configuration not stated), 226 to 227 °C.
To `Fc1ccc2[nH]cc(C3=CCN(CC4COc5ccc6c(c5O4)OCCC6)CC3)c2c1` (configuration not stated) belongs 146 to 148 °C; to `COc1ccc(-c2c(Cl)ncnc2NS(=O)(=O)c2ccc(C(C)C)cc2)cc1`, 181 to 182 °C.
With `CN1N=C(C2CCCCC2)CC1=O` the figure was 170 to 172 °C; with `C#Cc1cc(Oc2cnc(N)nc2N)c(C#C)cc1OC`, 163 to 164 °C; with `COC(=O)c1ccc2c(c1)S(=O)(=O)c1ccccc1O2`, 160 °C.
As for `CC(C)CCC(O)C(CC1CCCCC1)NC(=O)C(Cc1c[nH]cn1)N(C)C(=O)C(Cc1ccccc1)OC(=O)N(C)CCN(C)C(=O)N1CCOCC1` (configuration not stated), the melting point lay within 69 to 74 °C.
With `COc1ccc(CSc2ccc([N+](=O)[O-])cc2CO)cc1` the figure was 101 to 102 °C.
With `CN(NC(=O)c1ccccc1C(=O)O)c1nc(-c2ccccc2)cs1` the figure was 122 to 124 °C.
To `CC(=O)Oc1c(C(C)(C)C)cc(N(C)c2ccn(-c3ccccc3)n2)cc1C(C)(C)C` belongs 102 to 103 °C; to `O=c1[nH]c2nc3ccccc3n2c(=O)n1C1CCCCC1`, 335 °C.
Regarding `Cc1cccc(Br)c1-c1c(C)cccc1Br`, the melting point lay in the range of 90 to 92.3 °C.
To `CCC[C@@H](CC1(C(=O)Nc2nnc(CC)s2)CCCC1)C(=O)O` belongs 130 to 136 °C; to `Brc1csc2ncnc(NCc3ccccn3)c12`, 127 to 129 °C; to `CC(O)c1ccc(OCCCN2CCC(c3noc4cc(F)ccc34)CC2)c(O)c1` (configuration not stated), 142 to 144 °C.
With `CCOC(=O)Sc1cc(C)nc(C(Cl)(Cl)Cl)n1` the figure was 33 to 34.5 °C.
With `O=C(O)c1ccc(C=C2CCN(C(=O)c3ccc(Cl)cc3)CC2)c(F)c1` the figure was 170 to 173 °C; with `COc1ccc(NC(=O)C(F)F)cn1`, 75 to 78 °C.
`CCc1ccc(-n2nc(Cl)cc2-c2ccc(S(C)(=O)=O)cc2)cc1[N+](=O)[O-]` showed a melting point of 134 to 135 °C.
`COC(=O)c1ccc(OCCCNc2ccc(NCc3ccc4c(c3)OCCO4)cc2)cc1` registered a melting point of 185 to 188 °C.
To `CCN1c2ncccc2C(=O)N(C)c2ccc(-c3c[nH]c(C(N)=O)c3)nc21` belongs 284 to 285 °C; to `CCOC(=O)c1cc(CC)sc1Nc1ccc(C(F)F)cc1[N+](=O)[O-]`, 88 to 90 °C.
For the compound `Nc1nc2ccccc2c2c1nc(CN1CCOCC1)n2Cc1ccccc1`, the melting point is above 300 °C.
With `CN1CCC(Oc2[nH]nc(-c3ccc(Cl)cc3)c2-c2ccncc2)CC1` the figure was 256 to 257 °C; with `COCOc1ccc(-c2ncc3ccc(-c4csc(CN5CCCCC5)c4)nc3n2)cc1`, above 268 °C.
With `CSc1nc(Cl)cc2cnc(C)n12` the figure was 153 to 155 °C.
To `Cc1noc2cc(N3CCOCC3)ccc12` belongs 138 to 140 °C; to `O=C(c1cc(-c2ccccc2)c(N2CCOCC2)s1)c1ccc(Cl)cc1Cl`, 198 to 199 °C.
In the case of `O=C(Cc1c(-c2ccccc2)c2cc(CN3CCNCC3)c(Cl)cc2oc1=O)Nc1ccc(Cl)cc1C(F)(F)F`, the melting point was in the range of 237 to 242 °C.
With `Cc1cccc(C(=O)NN(C(=O)c2ccccc2)C(C)(C)C)c1` the figure was 111 to 114 °C; with `COc1ccc2[nH]cc(C3=CCN(C)CC3)c2n1`, 203 °C.
To `O=C(OCc1ccccc1)N1c2ccc(I)cc2CC1CO` (configuration not stated) belongs 110 to 111 °C.
With `O=c1c2ccccc2sc2cc(F)ccc12` the figure was 168 °C; with `COc1c(C)cc(-c2cncc(OC3SCC(OC(C)=O)C(OC(C)=O)C3OC(C)=O)c2)cc1C` (configuration not stated), 146 °C; with `COC1=C(Cl)C(=O)NC1=Nc1ccccc1`, 179 to 180 °C.
In the case of `CCCCCCCCCOc1cc([N+](=O)[O-])ccc1N`, the melting point is 74 to 75 °C.
To `COc1ccc2[nH]nc(N3CCN(CCCc4c(C)[nH]c5ccccc45)CC3)c2c1` belongs 145 to 147 °C; to `COC(=O)c1cncc(SCc2ccc(OC)cc2)c1`, 72 to 74 °C; to `Cc1nnc2n1-c1sc(CCS(=O)(=O)N3CCN(C)CC3)cc1C(c1ccccc1Cl)=NC2`, 148 to 150 °C.
Compound `COC(=O)c1nc2ccc(Cl)cc2n1Cc1ccccc1` gave a melting point of 184 to 186 °C.
With `COCC(=O)c1cnc2c(OC)cccc2c1Cl`, the melting point was in the range of 96 to 98 °C.
With `COC(=O)C1=C(S(=O)(=O)NC(=O)Nc2nc(C)cc(OC)n2)CCC1` the figure was 161 to 163 °C; with `O=C(NCCc1cncn1CCc1ccccc1)[C@H]1CN(Cc2ccccc2)CCN1C(=O)NC1CCCCC1`, 64.4 °C; with `CCCc1c(C#N)c(C(F)F)nc(C(F)(F)F)c1C(=O)OCC`, 40 to 41 °C.
With `CC(=O)c1ccc(S(=O)(=O)NCCN2CCOCC2)cc1` the figure was 128 to 129 °C; with `CCOC(=O)c1ccc(-c2ccc(OCCCI)c(-c3ccc4c(c3)C(C)(C)CCC4(C)C)c2)cc1`, 118 °C; with `C=Cc1ccc(NC(=O)C(C)C)nc1`, 77 to 78 °C.
With `COc1sc(-c2cc[nH]n2)c2c1C(=O)CC(C)(C)C2` the figure was 202 to 204 °C; with `O=C(c1cc(C(F)(F)F)cc(C(F)(F)F)c1)N1CCN(C(=O)CN2CCC(O)(c3ccccc3)CC2)C(c2ccccc2)C1` (racemic), 101 to 102 °C.
Compound `C=CCOC(=O)Nc1cc(-c2cccc(Cl)c2)sc1C(C)(C)O` came in with a melting point of 60 to 61 °C.
With `Cc1ccc(S(=O)(=O)N2CC3C(C2)C3Nc2ncc3cc(-c4ccccc4Cl)c(=O)n(C4CC4)c3n2)cc1` (configuration not stated) the figure was 265 to 274 °C; with `COC(=O)C1(CC(CCCl)=C(C)C)C(=O)C=C(OC(C)C)CC1C` (configuration not stated), 76 to 77 °C.
With `COc1ccc(N2C(=O)C(OC)C2c2ccc(C(=O)O)cc2)cc1` (configuration not stated) the figure was 233 °C.
With `N=C1SCCN1c1ccc([N+](=O)[O-])cc1` the figure was 166 °C; with `CNC(=O)C(C)Oc1ncn(-c2cccc(C(F)(F)F)c2)n1` (configuration not stated), 137 to 139 °C.
